Laboratory results taken from US10471028B2, “Small molecule efflux pump inhibitors” (UNIVERSITY OF ROCHESTER, priority 2014, dated 2019).
Like-named read-outs stand apart in the source and are kept apart here.

Assays:
[1] = test system: mammalian calcium channel; assay: Mammalian calcium channel assay (Fluo-4); type: cell-based, human; conditions: HEK 293T, carbachol treatment alone
From the text: Many laboratory bacterial efflux inhibitor tool compounds cannot be used in the clinical setting because they limit mammalian ion channel activity. […] Thus, we measured the effects of ABEPI1 and ABEPI2 on mammalian calcium channel functions using Fluo-4 Direct Calcium Channel Assay kits (Life Technologies, Carlsbad, Calif.), in which the dye Fluo-4 was used to measure changes in mammalian cytoplasmic Ca^2+ levels in response to the calcium channel stimulator, carbachol, in the absence and presence of test compound. […] Next, 2× Fluo-4 dye supplemented with Probenecid (5 mM) was added to each well and allowed to equilibrate for 1 hr at 37° C. To determine whether ABEPI1 or ABEPI2 affect Ca^2+ channel activity, Fluo-4 fluorescence measures (excitation 495nm; emission 516nm) were then taken every second for 15 sec.

[2] = test system: A. baumannii strain 98-37-09; assay: MEC determination: potentiation of minocycline toward serum grown A. baumannii; type: cell-based, Acinetobacter baumannii; conditions: for Log-reduction Colony Forming Units (ml^−1): 1×MEC of compound plus minocycline in serum, versus minocycline alone, plating; for MEC: lowest concentration inhibiting growth in 100% human serum with 0.5 μg ml^−1 minocycline, 48 hr
[3] = test system: A. baumannii strain 98-37-09; assay: Cellular accumulation of minocycline (HPLC, triple-quadrupole MS); type: cell-based, Acinetobacter baumannii; conditions: human serum with 0.5 μg mL^−1 minocycline plus test compound (0.5×MEC, 1×MEC), 48 hours
[4] = test system: human HepG2 cells; assay: MTT cell viability (cytotoxicity) assay
Protocol: To distinguish putatively non-toxic from human cytotoxic compounds, conventional 3-(4,5-dimethylthiazol-2yl)-2,5-diphenyltetrazolium bromide (MTT) cell viability assays (American Type Culture Collection, Manassas, Va.) were performed for each compound of interest at 1× and 4× their MEC. Briefly, human HepG2 cells were grown to approximately 1×10^6 cells per well in Dulbecco's Modified Eagle Media supplemented with 10% fetal bovine serum (Invitrogen, Carlsbad, Calif.) then treated with 1× or 4× the MEC of the indicated […] Cell viability was measured following the addition of the tetrazolium salt (MTT) as per the manufacturer's recommendations; cells challenged with 50 ug ml^−1 Mitomycin C (Sigma Aldrich) and mock-treated cells served as positive and negative controls, respectively.

[5] = test system: A. baumannii strain 98-37-09; assay: Potentiation of ciprofloxacin toward serum grown A. baumannii; type: cell-based, Acinetobacter baumannii; conditions: for Potentiate Ciprofloxacin A. baumannii (value in parentheses: log reduction of viability): 1×MEC with ciprofloxacin versus ciprofloxacin alone, plating; for Potentiate Ciprofloxacin A. baumannii: 100% human serum, 0.125 μg ml^−1 ciprofloxacin, 1× or 2× MEC, 48 hour, growth inhibition
From the text: As a means to further prioritize non-toxic compounds of interest based on their therapeutic promise, it was considered that broad spectrum antimicrobial efflux pump inhibitors may be more clinically valuable than narrow-spectrum agents that only potentiate the activity of a limited number of antibiotics or that display activity toward a single bacterial species. […] To do so, 1×10^5 A. baumannii strain 98-37-09 were inoculated into individual wells of microtiter plates containing 100% human serum supplemented with 0.125 μg ml^−1 ciprofloxacin and 0, 1×, or 2× the compound's MEC, as defined by the lowest concentration needed to potentiated minocycline's antimicrobial effects (above). Plates were incubated for 48 hour at which point each compound's ability to potentiate ciprofloxacin was measured, as growth inhibition.

[6] = test system: P. aeruginosa PA01; assay: Potentiation of ciprofloxacin toward serum grown P. aeruginosa; type: cell-based, Pseudomonas aeruginosa; conditions: PA01 in 100% human serum, 1×MEC, ciprofloxacin 0 to 2 μg ml^−1
Protocol: To do so, PA01 was inoculated into individuals wells of a microtiter plate containing 100% human serum supplemented with 1×MEC of test compound and increasing concentrations of ciprofloxacin (0 to 2 μg ml^−1) and cell viability was measured.

[7] = test system: A. baumannii strain 98-37-09; assay: Ethidium bromide efflux assay; type: cell-based, Acinetobacter baumannii; conditions: for ethidium bromide fluorescent signal in comparison to mock treated cells: 10 μg ml^−1 ethidium bromide, 90 min; for cellular ethidium fluorescence compared with PAβN: time course after treatment
Protocol: To distinguish whether the antimicrobial potentiation of ABEPI1 and ABEPI2 correlates with the inhibition of A. baumannii's efflux properties, conventional ethidium bromide efflux assays were performed in the presence and absence of each compound. The assay is predicated upon the fluorescent properties of ethidium bromide during intercalation into cellular nucleic acids, whereby efflux active cells display limited intracellular ethidium bromide accumulation and, consequently, low fluorescence. Conversely, efflux inhibition leads to increased cellular ethidium bromide levels and correspondingly high fluorescence relative to efflux proficient cells. Bacterial ethidium bromide efflux activity assays were used to measure the efflux inhibitory properties of compounds of interest. For assays, an overnight culture of A. baumannii strain 98-37-09 was diluted (1:100) into 100% human serum or fresh LB and grown to mid-exponential phase. Cell pellets were collected via centrifugation 900×g for 20 minutes, washed 3× with 20 mM sodium phosphate buffer and resuspended to an OD600nm=0.2 in sodium phosphate buffer. Approximately 1×10^6 CFU were loaded into individual wells of 96-well white-bottom plates, mixed with 10 μg ml^−1 ethidium bromide, and ethidium fluorescence (excitation 530nm; emission 600nm) was measured every 5 min for 90 min on a Spectramax5 fluorimeter (Molecular Devices, Sunnyvale, Calif.). To determine if the putative efflux pump inhibitors affected ethidium bromide efflux, cells were treated with the indicated amount of compound of interest or the efflux pump inhibitor, PaβN, two minutes after fluorescence monitoring began.

[8] = test system: A. baumannii; assay: Antibiotic susceptibility assay in LB medium or 100% human serum; type: cell-based, Acinetobacter baumannii; conditions: serum grown, efflux pump inhibitor present
Protocol: The antibiotic susceptibility of A. baumannii and Pseudomonas aeruginosa grown in either LB medium or 100% human serum was measured according to the method described below. Briefly, the indicated bacterial species/strain was grown overnight in LB medium, diluted into fresh medium (1:100 dilution) and grown to mid-exponential phase (OD600nm=0.4 to 0.5) at 37° C. with aeration. […] To quantify the antimicrobial effects of each antibiotic toward bacteria grown in LB or serum, well constitutes were serially diluted in PBS and plated on LB agar to enumerate the CFU mL^−1.

Compound	increase in cytoplasmic Ca^2+ levels [1]	Log-reduction Colony Forming Units (ml^−1) [2] [log]	MEC [2] [µg/mL]	Minocylcine Per Cell (femtomoles cell^−1) [3] [femtomoles cell^−1]	% Viability ([4]; human, 48 h, 4 ×MEC) [%]	Potentiate Ciprofloxacin A. baumannii (value in parentheses: log reduction of viability) [5]	Potentiate Ciprofloxacin A. baumannii [5]	Potentiate Ciprofloxacin P. aeruginosa [6]	Potentiate Ciprofloxacin P. aeruginosa ([6]; listed as ABEPI1)	ethidium bromide fluorescent signal in comparison to mock treated cells [7]	cellular ethidium fluorescence compared with PAβN [7]	% Viability [4] [%]	restoration of tetracycline susceptibility in serum [8]
C[N+](C)(C)CCOC(N)=O [Carbachol, carbamylocholine chloride]	approximately 2.3 fold	–	–	–	–	–	–	–	–	–	–	–	–
NS(=O)(=O)c1ccc(/N=C/c2ccc(Cl)cc2)cc1 [ST009675]	–	6.73	2	5.88E−04	96.6	(2.28) log	Yes	Yes	potentiated the activity of ciprofloxacin	significantly increased signal	levels exceeding that of PABN within the first 20 min of treatment	–	–
COC(=O)c1ccccc1NC(=O)CN1C(=O)c2ccccc2S1(=O)=O [ST058165]	–	6.27	32	1.11E−04	–	(1.53) log	Yes	No	–	–	–	76.9	–
CC(C)(C)NC(=O)CSc1nnnn1C(C)(C)C [ST060273]	–	6.53	32	6.84E−06	90.1	(4.36) log	Yes	Yes	–	significantly increased signal	essentially identical to those of PAβN until approximately 35 min post-treatment	–	–
phenylalanine arginine beta naphthylamide [PAβN, reference compound]	–	–	–	–	–	–	–	–	–	significantly increased cellular ethidium bromide accumulation	–	–	partially restored
